Laboratory results: PubChem BioAssay (NCI)
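Assay format: 96-well plates, 48-hour exposure. Definition used: TGI = concentration required for complete inhibition of growth.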

Assays:
Experiment in all cases: NCI anticancer screen, dose series, 48 h
PC-3 prostate = tested on: PC-3 prostate
OVCAR-8 ovarian = tested on: OVCAR-8 ovarian
MCF7 breast = tested on: MCF7 breast
HL-60(TB) leukemia = tested on: HL-60(TB) leukemia
SF-295 CNS = tested on: SF-295 CNS
COLO 205 colon = tested on: COLO 205 colon
HS 578T breast = tested on: HS 578T breast
SK-MEL-2 melanoma = tested on: SK-MEL-2 melanoma
HOP-92 NSCLC = tested on: HOP-92 NSCLC
MDA-N = tested on: MDA-N
HCT-15 colon = tested on: HCT-15 colon
SF-539 CNS = tested on: SF-539 CNS
786-0 renal = tested on: 786-0 renal
OVCAR-4 ovarian = tested on: OVCAR-4 ovarian
SW-620 colon = tested on: SW-620 colon
NCI-H226 lung = tested on: NCI-H226 lung
CCRF-CEM leukemia = tested on: CCRF-CEM leukemia
EKVX NSCLC = tested on: EKVX NSCLC
MDA-MB-231 breast = tested on: MDA-MB-231 breast
SF-268 CNS = tested on: SF-268 CNS
KM12 colon = tested on: KM12 colon
HCC-2998 colon = tested on: HCC-2998 colon
SN12C renal = tested on: SN12C renal
SK-OV-3 ovarian = tested on: SK-OV-3 ovarian
MOLT-4 leukemia = tested on: MOLT-4 leukemia
U251 CNS = tested on: U251 CNS
HCT-116 colon = tested on: HCT-116 colon
OVCAR-5 ovarian = tested on: OVCAR-5 ovarian
NCI-H23 lung = tested on: NCI-H23 lung
T-47D breast = tested on: T-47D breast
SK-MEL-5 melanoma = tested on: SK-MEL-5 melanoma
NCI-H460 lung = tested on: NCI-H460 lung
HT29 colon = tested on: HT29 colon
K-562 leukemia = tested on: K-562 leukemia
RXF 393 renal = tested on: RXF 393 renal
M14 melanoma = tested on: M14 melanoma
SK-MEL-28 melanoma = tested on: SK-MEL-28 melanoma
BT-549 breast = tested on: BT-549 breast
SNB-19 CNS = tested on: SNB-19 CNS
UACC-257 melanoma = tested on: UACC-257 melanoma
LOX IMVI melanoma = tested on: LOX IMVI melanoma
RPMI-8226 leukemia = tested on: RPMI-8226 leukemia
DU-145 prostate = tested on: DU-145 prostate
A498 renal = tested on: A498 renal
OVCAR-3 ovarian = tested on: OVCAR-3 ovarian
CAKI-1 renal = tested on: CAKI-1 renal
NCI/ADR-RES ovarian = tested on: NCI/ADR-RES ovarian
MALME-3M melanoma = tested on: MALME-3M melanoma
UO-31 renal = tested on: UO-31 renal
HOP-62 NSCLC = tested on: HOP-62 NSCLC
SNB-75 CNS = tested on: SNB-75 CNS
IGROV1 ovarian = tested on: IGROV1 ovarian
MDA-MB-435 = tested on: MDA-MB-435
UACC-62 melanoma = tested on: UACC-62 melanoma
A549 NSCLC = tested on: A549 NSCLC
SR leukemia = tested on: SR leukemia

Measured: TGI

CCOC(=O)c1cc2c3c(cc(OC)c2[nH]1)N(C(=O)OCC)CC3
> 100 µM: all assays above
